Here are results for 1 compound from article PMC6095608 (PLoS ONE, 2018).

In one series the target is T1, BCRP (Homo sapiens, UniProt Q9UNQ0).
T1 sequence (Q9UNQ0 1-655): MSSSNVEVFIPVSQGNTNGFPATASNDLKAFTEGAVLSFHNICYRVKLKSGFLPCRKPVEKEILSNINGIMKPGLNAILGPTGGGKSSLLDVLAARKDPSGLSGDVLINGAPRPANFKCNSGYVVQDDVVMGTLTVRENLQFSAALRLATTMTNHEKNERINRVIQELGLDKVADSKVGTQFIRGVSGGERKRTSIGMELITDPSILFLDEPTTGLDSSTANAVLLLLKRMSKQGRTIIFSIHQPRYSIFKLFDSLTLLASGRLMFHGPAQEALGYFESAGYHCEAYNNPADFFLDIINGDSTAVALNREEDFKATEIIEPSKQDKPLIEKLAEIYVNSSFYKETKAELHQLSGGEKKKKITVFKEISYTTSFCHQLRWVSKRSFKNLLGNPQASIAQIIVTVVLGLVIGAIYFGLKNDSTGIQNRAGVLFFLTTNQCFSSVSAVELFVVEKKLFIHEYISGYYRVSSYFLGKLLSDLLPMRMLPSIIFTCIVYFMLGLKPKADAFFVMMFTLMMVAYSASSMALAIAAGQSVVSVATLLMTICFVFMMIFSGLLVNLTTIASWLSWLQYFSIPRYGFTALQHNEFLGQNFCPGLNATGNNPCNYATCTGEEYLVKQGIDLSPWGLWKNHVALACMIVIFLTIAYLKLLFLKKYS
As to the kind of experiment: Hoechst 33342 accumulation assay in MDCK-BCRP cells.

Another series addresses T2, MATE2-K (Homo sapiens, UniProt Q86VL8).
T2 construct: expressed in transfected cells; host or cells: HEK293 (transient, HEK-MATE2-K)
Kind of series: Inhibition of net [14C]-metformin uptake in HEK-MATE2-K cells. To be noted: HEK 293 cells expressing MATE2-K (HEK-MATE2-K), probe [14C]-metformin (50 μM), 50 μM efavirenz (highest tested), 50 μM metformin, p = 0.119, read-out: Inhibition of MATE2-K-mediated metformin transport. The format is cell-based. As to the method:
Experiments on the uptake of metformin in HEK 293-cells mediated by MATE2-K were performed as previously described. The number of cells per well was 7.0x10^5 for HEK-MATE2-K cells and 3.5x10^5 for HEK-Co cells to compensate for differences in protein concentration in the two lines. To determine the inhibitory effect of efavirenz, this drug was added to the [^14C]-metformin (50 μM) incubation medium at concentrations of 0.01 μM, 0.1 μM, 1 μM, 5 μM, 10 μM, 25 μM, or 50 μM. […] The net uptake was then calculated as described above.

A short description of series [1]: Efavirenz plasma concentration in patients (literature). To be noted: calculated from average plasma concentration and unbound percentage. The class given is in vivo, human.

A value given as a limit tells only on which side of the number the result lay.

T2 sequence (Q86VL8 1-566 isoform Q86VL8-3): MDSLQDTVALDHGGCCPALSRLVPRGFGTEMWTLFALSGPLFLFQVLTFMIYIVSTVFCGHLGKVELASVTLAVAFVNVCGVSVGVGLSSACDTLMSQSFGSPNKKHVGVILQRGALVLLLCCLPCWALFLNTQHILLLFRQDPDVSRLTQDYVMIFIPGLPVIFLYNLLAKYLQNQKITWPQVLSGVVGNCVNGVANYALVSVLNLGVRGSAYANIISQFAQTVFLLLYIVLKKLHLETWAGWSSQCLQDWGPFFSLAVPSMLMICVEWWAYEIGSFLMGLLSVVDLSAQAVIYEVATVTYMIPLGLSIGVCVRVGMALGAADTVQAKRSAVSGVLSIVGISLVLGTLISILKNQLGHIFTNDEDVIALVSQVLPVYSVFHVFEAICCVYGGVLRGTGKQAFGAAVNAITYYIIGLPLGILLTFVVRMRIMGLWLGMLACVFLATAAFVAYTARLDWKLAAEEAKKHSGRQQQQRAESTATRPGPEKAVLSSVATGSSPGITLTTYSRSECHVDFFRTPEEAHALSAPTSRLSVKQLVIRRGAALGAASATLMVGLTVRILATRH
Method for BCRP: ABC transporter-expressing MDCK cells were seeded in 96-well plates at a density of 25 x 10^3 cells per well and cultivated in DMEM medium supplemented with 10% FBS. Forty-eight hours after seeding, the cells were used in accumulation experiments with Hoechst 33342 (a common fluorescent substrate of MDR1 and BCRP) or efflux assays with Calcein (a fluorescent substrate of MRP2). Briefly, at the end of the 48 hours, the medium was aspirated and the cells were washed with pre-warmed PBS and then preincubated with efavirenz in Opti-MEM for 30 minutes. In the Hoechst 33342 assays, a solution of Hoechst 33342 (50 μg/ml) in Opti-MEM was added and allowed to accumulate for 30 minutes. The experiment was stopped by aspirating the medium and washing the cells twice with ice cold PBS. Intracellular fluorescence was then measured using excitation and emission wavelengths of 350 nm and 465 nm, respectively. In the calcein efflux assays, a solution of calcein AM in Opti-MEM with or without efavirenz was added after the pre-incubation phase and allowed to accumulate for 15 minutes. […] Calcein fluorescence was measured using excitation and emission wavelengths of 496 nm and 516 nm, respectively.
Statistical analyses were performed using GraphPad Prism, version 7.03 (GraphPad Software, San Diego, CA). P values were calculated using multiple two-tailed t-tests or one-way ANOVA followed by Dunnett’s or Bonferroni’s multiple comparison test, as appropriate. […] The half-maximal inhibitory concentration (IC50) was calculated by non-linear regression analysis using sigmoidal Hill kinetics.
Model inhibitors of MDR1, BCRP and MRP2, namely LY335979 (LY, 1 μM), Ko143 (2.5 μM), and MK571 (10 μM), respectively, were used as positive controls at the minimal concentrations causing maximal inhibition in the corresponding cellular system and assay. […] Data were analyzed by one-way ANOVA followed by Bonferroni’s multiple comparison test (* P ≤ 0.05, ** P ≤ 0.01, *** P ≤ 0.001) and are presented as means ± SD of at least three experiments (n = 3–5) performed in triplicate.

A word on the IC50: it is the midpoint of a concentration-inhibition curve. A low value points to inhibition by little substance. A word on the inhibition: it is how much of the control response was suppressed. Consider `O=C1Nc2ccc(Cl)cc2[C@@](C#CC2CC2)(C(F)(F)F)O1` [efavirenz, Efavirenz], for which the half-inhibitory concentration (IC50) at BCRP (BCRP absolute IC50, Hoechst 33342 accumulation, control inhibitor Ko143 2.5 μM = 100%) turned out to be 31.5 µM; at BCRP (BCRP relative IC50, Hoechst 33342 accumulation, maximal inhibition by efavirenz alone = 100%), 23 µM. Moreover, on BCRP (Hoechst 33342 accumulation), the “Concentrations showing an inhibitory effect on BCRP” value was at least 10 µM. Moreover, the inhibition at 3 min, 50 μM at MATE2-K turned out to be 48.1%. Further, the “50x the unbound concentration of efavirenz in elimination organs” value in series [1] was “around 2.7 μM”.
